Assay results as given in US10688086B2, “Method for treating cancer with dihydropyridine calcium antagonist” (GERMARK BIOTECHNOLOGY CO., LTD, priority 2016, dated 2020).

Legend:
HepG2 cells = experiment: Cell metastasis (Transwell, Calcein AM fluorescence), HepG2; type: cell-based; conditions: 10 μM, 48 or 72 hrs
Method: The HepG2 and Hep3B cells were separately cultured in an insert of the Transwell plate, then added with 10 μM Amlodipine and cultured for 48 or 72 hrs. The insert was placed in a serum-free DMEM medium containing […] Calcien AM. Fluorescent staining was carried out in a culture environment at 37° C. After about 45-60 min, the cells were scraped off with 0.05% Trypsin-EDTA, and the fluorescence intensity at a wavelength of 490 to 520 nm was measured.

Hep3B cells [1] = experiment: Cell invasion (Transwell, crystal violet), Hep3B; type: cell-based; conditions: 10 μM, 72 hrs
Method: The HepG2 and Hep3B cells were separately cultured in the insert of the Transwell plate, then added with 10 μM Amlodipine and cultured for 48 or 72 hrs. The cells on the inner surface of the insert were taken out, and the insert was placed in methanol and stained with a crystal violet solution. […] That is, Amlodipine is effective in slowing the progression of cancers, thereby achieving a therapeutic effect in the treatment of cancers.

[2] = tested on: patients having lung cancer; experiment: NHIRD statistical analysis of death/survival with vs without Amlodipine, lung cancer; type: in vivo, human
Hep3B cells [3] = experiment: Western blotting of apoptosis-related proteins, Hep3B; type: cell-based; conditions: various concentrations, 24 hours
Method: The expression of apoptosis-related genes in each liver cancer cell line treated with various concentrations of Amlodipine for 24 hours were detected by Western blotting.

liver cancer cells Hep3B = experiment: Cell cycle analysis by flow cytometry, Hep3B; type: cell-based
Method: (§1) Two liver cancer cell lines HepG2 and Hep3B were cultured. The medium used for the culture of the cells was DMEM medium containing 10% fetal bovine serum, 10,000 U/ml penicillin and 10,000 μg/ml streptomycin. The culture occurred in an environment at 37° C. with 5% CO2, and the medium was changed every 2-3 days during the culture. After the cells were cultured to about 70% confluence, they were treated with various concentrations of Amlodipine: 0, 1.5625, 3.125, 6.25, 12.5, 25, and 50 μM for various times: 48, and 72 hrs. After the experiment, the viability of each liver cancer cell line was observed and the cell viability and cell cycle were analyzed. The cell cycle of each liver cancer cell line treated under different conditions was analyzed by flow cytometry. […] Still further, each liver cancer cell line was treated with Amlodipine at a concentration of 12.5 μM for 0, 12, 24, 36 and 48 hrs, and the cell cycle was analyzed by flow cytometry.

Hep3B cells [4] = experiment: Cell viability (WST-1 72 hrs; PI flow cytometry 48 hrs), Hep3B; type: cell-based
Method: Two liver cancer cell lines HepG2 and Hep3B were cultured. The medium used for the culture of the cells was DMEM medium containing 10% fetal bovine serum, 10,000 U/ml penicillin and 10,000 μg/ml streptomycin. The culture occurred in an environment at 37° C. with 5% CO2, and the medium was changed every 2-3 days during the culture. After the cells were cultured to about 70% confluence, they were treated with various concentrations of Amlodipine: 0, 1.5625, 3.125, 6.25, 12.5, 25, and 50 μM for various times: 48, and 72 hrs. After the experiment, the viability of each liver cancer cell line was observed and the cell viability and cell cycle were analyzed. The HepG2 and Hep3B cells treated with various concentrations of Amlodipine for 72 hrs were added to WST-1 reagent. After 330 minutes of reaction, the absorbance at a wavelength of 420-480 nm was measured. The HepG2 and Hep3B cells treated with various concentrations of Amlodipine for 48 hrs were scraped off with 0.05% Trypsin-EDTA, and then added to 2 mg/ml PI solution. The cell viability was analyzed by flow cytometry.

[5] = tested on: patients having pancreatic cancer; experiment: NHIRD statistical analysis of death/survival with vs without Amlodipine, pancreatic cancer; type: in vivo, human
liver cancer cells HepG2 = experiment: Cell cycle analysis by flow cytometry, HepG2; type: cell-based
Method: as §1

[6] = 24/30: Amlodipine at least 24 days within 30 days after cancer diagnosis
[7] = 48/60: Amlodipine at least 48 days within 60 days after cancer diagnosis
[8] = Amlodipine for 20 days within 90 days after diagnosis
[9] = 12.5 μM Amlodipine, treatment time 12 hr
[10] = 12.5 μM Amlodipine, treatment time 24 hr
[11] = 12.5 μM Amlodipine, treatment time 36 hr
[12] = 12.5 μM Amlodipine, treatment time 48 hr

## CCOC(=O)C1=C(COCCN)NC(C)=C(C(=O)OC)C1c1ccccc1Cl (stereo not drawn) [Amlodipine]
HepG2 cells
  fluorescence intensity (cell metastasis) vs cells not treated with Amlodipine: lower
Hep3B cells [1]
  fluorescence intensity (cell invasion) vs cells not treated with Amlodipine: lower
[2]; [6]
  Crude HR HRs (95% C.I.): 0.66 (0.62-0.70)
[2]; [7]
  Crude HR HRs (95% C.I.): 0.62 (0.58-0.67)
[2]; [8]
  Crude HR HRs (95% C.I.): 0.85 (0.80-0.90)
[2]; day of treatment with Amlodipine 72/9
  Crude HR HRs (95% C.I.): 0.62 (0.58-0.66)
Hep3B cells [3]
  intracellular expression of apoptotic proteins (Western blotting): results in the intracellular expression of apoptotic proteins
Liver cancer cells Hep3B; 1.5625 μM Amlodipine, 48 hrs
  Proportion of cell distribution in cell cycle (%) M1:: 5.34%
  Proportion of cell distribution in cell cycle (%) M2:: 74.88%
  Proportion of cell distribution in cell cycle (%) M3:: 7.06%
  Proportion of cell distribution in cell cycle (%) M4:: 12.82%
Liver cancer cells Hep3B; 3.125 μM Amlodipine, 48 hrs
  Proportion of cell distribution in cell cycle (%) M1:: 6.51%
  Proportion of cell distribution in cell cycle (%) M2:: 73.83%
  Proportion of cell distribution in cell cycle (%) M3:: 6.63%
  Proportion of cell distribution in cell cycle (%) M4:: 13.17%
Liver cancer cells Hep3B; 6.25 μM Amlodipine, 48 hrs
  Proportion of cell distribution in cell cycle (%) M1:: 6.48%
  Proportion of cell distribution in cell cycle (%) M2:: 72.91%
  Proportion of cell distribution in cell cycle (%) M3:: 6.74%
  Proportion of cell distribution in cell cycle (%) M4:: 13.93%
Liver cancer cells Hep3B; 12.5 μM Amlodipine, 48 hrs
  Proportion of cell distribution in cell cycle (%) M1:: 16.96%
  Proportion of cell distribution in cell cycle (%) M2:: 67.77%
  Proportion of cell distribution in cell cycle (%) M3:: 6.58%
  Proportion of cell distribution in cell cycle (%) M4:: 8.83%
Liver cancer cells Hep3B; [9]
  Proportion of cell distribution in cell cycle (%) M1:: 24.89%
  Proportion of cell distribution in cell cycle (%) M2:: 62.89%
  Proportion of cell distribution in cell cycle (%) M3:: 4.22%
  Proportion of cell distribution in cell cycle (%) M4:: 8.08%
Liver cancer cells Hep3B; [10]
  Proportion of cell distribution in cell cycle (%) M1:: 30.77%
  Proportion of cell distribution in cell cycle (%) M2:: 56.25%
  Proportion of cell distribution in cell cycle (%) M3:: 5.46%
  Proportion of cell distribution in cell cycle (%) M4:: 7.55%
Liver cancer cells Hep3B; [11]
  Proportion of cell distribution in cell cycle (%) M1:: 39.90%
  Proportion of cell distribution in cell cycle (%) M2:: 47.73%
  Proportion of cell distribution in cell cycle (%) M3:: 5.03%
  Proportion of cell distribution in cell cycle (%) M4:: 7.47%
Liver cancer cells Hep3B; [12]
  Proportion of cell distribution in cell cycle (%) M1:: 56.61%
  Proportion of cell distribution in cell cycle (%) M2:: 29.59%
  Proportion of cell distribution in cell cycle (%) M3:: 7.08%
  Proportion of cell distribution in cell cycle (%) M4:: 6.82%
Liver cancer cells Hep3B; 12.5 μM or more, 48 hrs
  cell division (cell cycle, in words): most cells were unable to undergo cell division
Liver cancer cells Hep3B; 25 μM Amlodipine, 48 hrs
  Proportion of cell distribution in cell cycle (%) M1:: 57.32%
  Proportion of cell distribution in cell cycle (%) M2:: 28.75%
  Proportion of cell distribution in cell cycle (%) M3:: 8.02%
  Proportion of cell distribution in cell cycle (%) M4:: 6.10%
Hep3B cells [4]
  Amlodipine concentration at which the best inhibitory effect on the growth of liver cancer cells is achieved: greater than or equal to 12.5 μM
Hep3B cells [4]; 1.5625-50 μM, 48 and 72 hrs, FIGS. 10, 13-15
  cell viability of liver cancer cells treated with Amlodipine: decreased
[5]; [6]
  Crude HR HRs (95% C.I.): 0.62 (0.51-0.75)
[5]; [7]
  Crude HR HRs (95% C.I.): 0.63 (0.51-0.77)
[5]; 72/90: Amlodipine at least 72 days within 90 days after cancer diagnosis
  Crude HR HRs (95% C.I.): 0.71 (0.57-0.88)
[5]; [8]
  Crude HR HRs (95% C.I.): 0.77 (0.65-0.93)
Liver cancer cells HepG2; 1.5625 μM Amlodipine, 48 hrs
  Proportion of cell distribution in cell cycle (%) M1:: 1.58%
  Proportion of cell distribution in cell cycle (%) M2:: 70.28%
  Proportion of cell distribution in cell cycle (%) M3:: 8.89%
  Proportion of cell distribution in cell cycle (%) M4:: 19.34%
Liver cancer cells HepG2; 3.125 μM Amlodipine, 48 hrs
  Proportion of cell distribution in cell cycle (%) M1:: 1.36%
  Proportion of cell distribution in cell cycle (%) M2:: 69.60%
  Proportion of cell distribution in cell cycle (%) M3:: 8.91%
  Proportion of cell distribution in cell cycle (%) M4:: 20.23%
Liver cancer cells HepG2; 6.25 μM Amlodipine, 48 hrs
  Proportion of cell distribution in cell cycle (%) M1:: 1.91%
  Proportion of cell distribution in cell cycle (%) M2:: 66.92%
  Proportion of cell distribution in cell cycle (%) M3:: 10.28%
  Proportion of cell distribution in cell cycle (%) M4:: 21.01%
Liver cancer cells HepG2; 12.5 μM Amlodipine, 48 hrs
  Proportion of cell distribution in cell cycle (%) M1:: 81.27%
  Proportion of cell distribution in cell cycle (%) M2:: 12.49%
  Proportion of cell distribution in cell cycle (%) M3:: 3.31%
  Proportion of cell distribution in cell cycle (%) M4:: 2.95%
Liver cancer cells HepG2; [9]
  Proportion of cell distribution in cell cycle (%) M1:: 5.01%
  Proportion of cell distribution in cell cycle (%) M2:: 76.16%
  Proportion of cell distribution in cell cycle (%) M3:: 6.10%
  Proportion of cell distribution in cell cycle (%) M4:: 12.87%
Liver cancer cells HepG2; [10]
  Proportion of cell distribution in cell cycle (%) M1:: 16.20%
  Proportion of cell distribution in cell cycle (%) M2:: 65.01%
  Proportion of cell distribution in cell cycle (%) M3:: 6.24%
  Proportion of cell distribution in cell cycle (%) M4:: 12.69%
Liver cancer cells HepG2; [11]
  Proportion of cell distribution in cell cycle (%) M1:: 65.46%
  Proportion of cell distribution in cell cycle (%) M2:: 22.64%
  Proportion of cell distribution in cell cycle (%) M3:: 4.81%
  Proportion of cell distribution in cell cycle (%) M4:: 7.22%
Liver cancer cells HepG2; [12]
  Proportion of cell distribution in cell cycle (%) M1:: 83.26%
  Proportion of cell distribution in cell cycle (%) M2:: 11.13%
  Proportion of cell distribution in cell cycle (%) M3:: 1.73%
  Proportion of cell distribution in cell cycle (%) M4:: 3.93%
Liver cancer cells HepG2; 12.5 μM or more, 48 hrs
  cell division (cell cycle, in words): most cells were unable to undergo cell division
Liver cancer cells HepG2; 25 μM Amlodipine, 48 hrs
  Proportion of cell distribution in cell cycle (%) M1:: 99.75%
  Proportion of cell distribution in cell cycle (%) M2:: 0.22%
  Proportion of cell distribution in cell cycle (%) M3:: 0.00%
  Proportion of cell distribution in cell cycle (%) M4:: 0.94%
